The source made the active and inactive calls. No cut-off for these calls is given here.
Assays:
[1] = AUClast in BALB/c mouse at 3 mg/kg, iv by LC-MS/MS analysis; type: ADME, organism-based; parameters: time 0 - last, dose 3 mg/kg, route iv; settings: in vivo
[2] = Cytotoxicity against human THP1-Dual KO-STING cells assessed as residual cell viability by CellTiter96 Aqueous One Solution Cell Proliferation Assay; type: functional; parameters: concentration or dose not given beside the values
[3] = target: T1, Stimulator of interferon genes protein (Homo sapiens, UniProt Q86WV6); settings: THP1-Dual, filed as activator, dose 50.0 µM, time 24.0 hrs
[4] = Clearance in BALB/c mouse at 3 mg/kg, iv by LC-MS/MS analysis; type: ADME, organism-based; settings: BALB/c, in vivo
[5] = AUCinfinity in BALB/c mouse at 3 mg/kg, iv by LC-MS/MS analysis; type: ADME, organism-based; parameters: time infinity, dose 3 mg/kg, route iv; settings: BALB/c, in vivo
THP1-Dual = assay: Cytotoxicity against human wild type THP1-Dual cells assessed as residual cell viability by CellTiter96 Aqueous One Solution Cell Proliferation Assay; type: functional; parameters: concentration or dose not given beside the values
[6] = Volume of distribution at steady state in BALB/c mouse at 3 mg/kg, iv by LC-MS/MS analysis; type: ADME, organism-based; settings: in vivo, read-out: Vdss
[7] = Terminal half life in BALB/c mouse at 3 mg/kg, iv by LC-MS/MS analysis; type: ADME, organism-based; settings: in vivo, read-out: beta t1/2 (converted)
[8] = Activation of IRF-mediated immune response in human THP1-Dual KO-STING cells co-expressing ISRE reporter assessed as normalized luciferase gene expression by measuring relative luciferase units at 50 uM incubated for 24 hrs by QUANTI Luc based microplate reader method; type: functional
RAW264.7 [9] = assay: Induction of IP-10 secretion in mouse RAW264.7 cells at 0.64 to 10000 nM by ELISA; type: functional, cell-based; settings: dose 0.64-10000 nM
[10] = Toxicity in BALB/c mouse xenografted with mouse CT26 cells assessed as body weight loss at 0.015 mg/kg, iv measured after 8 days; type: organism-based; settings: in vivo, 192 h, time 8 day
[11] = Induction of IP-10 secretion in human THP-1 cells assessed as maximal efficacy by ELISA relative to control; type: functional
RAW264.7 [12] = assay: Induction of IL-6 secretion in mouse RAW264.7 cells at 2 uM incubated for 24 hrs by ELISA; type: functional, cell-based
CT26 [13] = assay: Antitumor immunity activity against mouse CT26 cells xenografted in BALB/c mouse model assessed as tumor growth inhibition at 1.5 mg/kg, iv measured after 8 days; type: functional, organism-based; settings: time 8.0 day
[14] = Toxicity in BALB/c mouse xenografted with mouse CT26 cells assessed as effect on body weight at 1.5 mg/kg, iv measured after 8 days; type: organism-based; settings: in vivo, 192 h, time 8 day
CT26 [15] = assay: Antitumor immunity activity against mouse CT26 cells xenografted in BALB/c mouse model assessed as tumor growth inhibition at 0.015 mg/kg, iv measured after 8 days; type: functional, organism-based; settings: time 8.0 day
RAW264.7 [16] = assay: Activation of NF-kappaB mediated pro-inflammatory effector proteins in mouse RAW264.7 cells at 100 to 500 nM for incubated for 3 hrs by western blot analysis; type: cell-based; settings: filed as activator, dose 100-500 nM
CT26 [17] = assay: Immunological memory derived cancer inhibition in mouse CT26 cells inoculated in 1.5 mg/kg, iv for 8 days treated/cured BALB/c mouse model assessed as tumor recurrence followed by re-inoculation of cells; type: functional, organism-based; settings: time 8.0 day
RAW264.7 [18] = assay: Induction of TNF-alpha secretion in mouse RAW264.7 cells at 0.625 uM incubated for 24 hrs by ELISA; type: functional, cell-based
[19] = target: Nuclear factor NF-kappa-B complex (Homo sapiens) (UniProt Q00653+P19838+Q04206); assay: Activation of NF-kappaB mediated pro-inflammatory effector proteins in human THP-1 cells at 2 to 10 nM incubated for 4 hrs by western blot analysis; type: cell-based; settings: filed as activator, dose 2-10 nM
PBMC = assay: Induction of IFN-beta secretion in human PBMC cells at 1.6 to 1000 nM by ELISA; type: functional, cell-based; settings: dose 1.6-1000 nM
[20] = target: T1, Stimulator of interferon genes protein; assay: Binding affinity to recombinant human His-tagged STING by measuring fluorescent signals in the presence of d2 labelled STING wild type ligand by HTRF based microplate reader analysis
[21] = Solubility of the compound in DMSO at 50 to 100 uM incubated for 72 hrs; type: physicochemical; settings: dose 50-100 µM
[22] = target: T2, Stimulator of interferon genes protein (Mus musculus) (UniProt Q3TBT3); assay: Activation of STING mediated immune response in mouse RAW264.7 cells assessed as induction of IFNbeta secretion at 5000 to 20000 nM measured after 24 hrs by ELISA; type: cell-based; settings: filed as activator, dose 5000-20000 nM
T2 sequence (whole entry): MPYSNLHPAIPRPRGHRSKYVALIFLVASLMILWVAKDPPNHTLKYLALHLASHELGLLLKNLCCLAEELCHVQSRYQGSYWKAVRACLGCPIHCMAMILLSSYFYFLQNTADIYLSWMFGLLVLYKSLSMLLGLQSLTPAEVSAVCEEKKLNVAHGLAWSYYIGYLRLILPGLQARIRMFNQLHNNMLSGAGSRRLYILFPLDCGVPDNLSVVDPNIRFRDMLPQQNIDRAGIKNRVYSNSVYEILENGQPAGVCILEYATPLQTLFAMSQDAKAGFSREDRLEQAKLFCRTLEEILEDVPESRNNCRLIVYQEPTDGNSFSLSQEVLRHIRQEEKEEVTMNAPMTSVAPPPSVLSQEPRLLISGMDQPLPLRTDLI

[23] = target: T1, Stimulator of interferon genes protein; assay: Activation of STING mediated immune response in human THP-1 cells assessed as induction of IP-10 secretion at 500 to 5000 nM measured after 24 hrs by ELISA; type: cell-based; settings: filed as activator, dose 500-5000 nM
[24] = target: T2, Stimulator of interferon genes protein (Mus musculus); assay: Activation of STING mediated immune response in mouse RAW264.7 cells assessed as induction of IP-10 secretion at 5000 to 20000 nM measured after 24 hrs by ELISA; type: cell-based; settings: filed as activator, dose 5000-20000 nM
[25] = target: T1, Stimulator of interferon genes protein; assay: Activation of STING mediated immune response in human THP-1 cells assessed as induction of IFNbeta secretion at 500 to 5000 nM measured after 24 hrs by ELISA; type: cell-based; settings: filed as activator, dose 500-5000 nM

T1 sequence (Q86WV6 whole entry): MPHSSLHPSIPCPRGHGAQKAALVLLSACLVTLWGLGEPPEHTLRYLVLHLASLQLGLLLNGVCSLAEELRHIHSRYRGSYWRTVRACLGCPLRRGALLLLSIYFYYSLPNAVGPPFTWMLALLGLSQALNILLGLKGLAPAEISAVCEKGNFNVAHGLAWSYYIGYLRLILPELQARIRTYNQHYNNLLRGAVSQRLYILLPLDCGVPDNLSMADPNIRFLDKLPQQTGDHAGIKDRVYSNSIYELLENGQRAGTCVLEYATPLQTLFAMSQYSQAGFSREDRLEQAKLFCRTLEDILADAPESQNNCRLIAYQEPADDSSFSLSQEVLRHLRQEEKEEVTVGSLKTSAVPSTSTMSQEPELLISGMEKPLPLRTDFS
Sequence of Nuclear factor NF-kappa-B complex (Homo sapiens) (P19838 whole entry, looked up): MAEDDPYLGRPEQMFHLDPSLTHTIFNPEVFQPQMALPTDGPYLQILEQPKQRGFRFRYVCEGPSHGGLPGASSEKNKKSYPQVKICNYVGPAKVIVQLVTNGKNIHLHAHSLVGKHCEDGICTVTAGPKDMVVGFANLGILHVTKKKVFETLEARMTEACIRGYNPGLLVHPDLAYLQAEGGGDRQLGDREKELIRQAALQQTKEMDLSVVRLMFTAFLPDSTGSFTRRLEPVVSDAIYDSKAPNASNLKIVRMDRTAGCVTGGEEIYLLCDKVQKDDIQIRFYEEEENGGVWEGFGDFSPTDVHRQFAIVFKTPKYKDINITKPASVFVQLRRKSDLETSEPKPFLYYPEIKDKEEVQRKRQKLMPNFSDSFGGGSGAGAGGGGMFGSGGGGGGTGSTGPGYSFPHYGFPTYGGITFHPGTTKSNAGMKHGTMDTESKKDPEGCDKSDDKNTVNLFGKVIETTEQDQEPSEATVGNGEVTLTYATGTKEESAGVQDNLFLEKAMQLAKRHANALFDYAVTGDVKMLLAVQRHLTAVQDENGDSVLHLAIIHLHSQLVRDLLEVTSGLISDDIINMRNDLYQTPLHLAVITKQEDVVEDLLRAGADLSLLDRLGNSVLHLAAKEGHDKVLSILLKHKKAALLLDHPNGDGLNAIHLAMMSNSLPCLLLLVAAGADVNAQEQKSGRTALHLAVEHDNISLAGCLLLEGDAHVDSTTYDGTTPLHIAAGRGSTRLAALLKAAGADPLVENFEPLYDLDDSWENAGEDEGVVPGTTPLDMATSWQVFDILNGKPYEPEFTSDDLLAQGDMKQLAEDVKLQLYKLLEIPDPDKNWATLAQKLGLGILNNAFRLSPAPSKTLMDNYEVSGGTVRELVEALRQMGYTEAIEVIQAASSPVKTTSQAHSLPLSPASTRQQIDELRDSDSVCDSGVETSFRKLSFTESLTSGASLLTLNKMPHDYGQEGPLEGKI
Sequence of Nuclear factor NF-kappa-B complex (Homo sapiens) (Q00653 whole entry, looked up): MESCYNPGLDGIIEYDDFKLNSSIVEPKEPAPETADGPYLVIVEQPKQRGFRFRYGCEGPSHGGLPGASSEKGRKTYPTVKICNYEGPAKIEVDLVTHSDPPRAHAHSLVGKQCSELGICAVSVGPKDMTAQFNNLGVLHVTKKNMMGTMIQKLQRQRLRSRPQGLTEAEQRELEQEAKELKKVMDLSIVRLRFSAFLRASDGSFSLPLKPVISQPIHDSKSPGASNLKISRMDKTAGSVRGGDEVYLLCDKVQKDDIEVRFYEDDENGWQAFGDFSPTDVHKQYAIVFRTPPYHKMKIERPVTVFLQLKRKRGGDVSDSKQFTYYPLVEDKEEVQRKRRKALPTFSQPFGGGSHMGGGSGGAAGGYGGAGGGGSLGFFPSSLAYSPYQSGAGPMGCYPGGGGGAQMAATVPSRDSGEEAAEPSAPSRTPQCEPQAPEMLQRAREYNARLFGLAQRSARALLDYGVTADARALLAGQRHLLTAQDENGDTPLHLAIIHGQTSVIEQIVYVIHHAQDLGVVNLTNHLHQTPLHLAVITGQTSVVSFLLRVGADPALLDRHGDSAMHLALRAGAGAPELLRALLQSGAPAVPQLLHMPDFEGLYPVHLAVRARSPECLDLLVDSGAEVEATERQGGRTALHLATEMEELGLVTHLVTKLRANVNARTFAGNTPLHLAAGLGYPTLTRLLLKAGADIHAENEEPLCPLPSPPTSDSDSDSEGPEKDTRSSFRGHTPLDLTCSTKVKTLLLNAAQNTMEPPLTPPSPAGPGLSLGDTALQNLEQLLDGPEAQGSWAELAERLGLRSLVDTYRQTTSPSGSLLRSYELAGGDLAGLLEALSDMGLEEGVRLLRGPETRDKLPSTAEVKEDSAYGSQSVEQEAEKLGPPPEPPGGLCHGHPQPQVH
Sequence of Nuclear factor NF-kappa-B complex (Homo sapiens) (Q04206 whole entry, looked up): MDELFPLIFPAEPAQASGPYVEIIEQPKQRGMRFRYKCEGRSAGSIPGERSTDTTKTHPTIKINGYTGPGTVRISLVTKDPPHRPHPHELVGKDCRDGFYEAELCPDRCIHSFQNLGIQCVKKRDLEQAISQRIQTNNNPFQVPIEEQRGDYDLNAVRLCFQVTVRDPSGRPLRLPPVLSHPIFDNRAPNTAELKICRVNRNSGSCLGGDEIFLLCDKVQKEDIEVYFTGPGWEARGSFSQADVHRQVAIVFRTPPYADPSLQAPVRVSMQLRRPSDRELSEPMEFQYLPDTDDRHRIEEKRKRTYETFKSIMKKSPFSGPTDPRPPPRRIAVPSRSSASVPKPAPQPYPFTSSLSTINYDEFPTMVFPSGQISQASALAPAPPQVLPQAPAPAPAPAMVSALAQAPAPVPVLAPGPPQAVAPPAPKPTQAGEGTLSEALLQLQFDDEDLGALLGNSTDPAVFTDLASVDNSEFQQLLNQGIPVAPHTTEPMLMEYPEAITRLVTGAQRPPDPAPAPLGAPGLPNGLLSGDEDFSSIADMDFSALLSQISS

| SMILES | RLU [3] | Activity [2] [%] | Activity (THP1-Dual) [%] | RLU [8] | other results |
| --- | --- | --- | --- | --- | --- |
| CCn1nc(C)cc1C(=O)NCCCCn1c(NC(=O)c2cc(C)nn2CC)nc2cc(C(N)=O)ccc21 | 104 | 88.2 | 68.2 | 0.9 | AUC(0-t) [1]: 310 ng·h/mL; clearance [4]: 158 mL/min/kg; AUC(0-inf) [5]: 320 ng·h/mL; Vd [6]: 1.8 L/kg; half-life [7]: 0.59 h |
| CCn1nc(C)cc1C(=O)Nc1nc2cc(C(N)=O)ccc2n1CCCCN | 0.8 | 85.5 | 95.2 | 1 | – |
| CC(C)(C)OC(=O)NCCCCn1c(NC(=O)c2ccoc2)nc2cc(C(N)=O)ccc21 | 0.9 | 96.2 | 90.3 | 1 | – |
| C=CCn1nc(C(=O)Nc2nc3cc(C(N)=O)ccc3n2CCCCn2c(NC(=O)c3cc(C)n(CC=C)n3)nc3cc(C(N)=O)ccc32)cc1C | 0.8 | 108.3 | 108.6 | 0.9 | – |
| CCn1nc(C)cc1C(=O)Nc1nc2cc(C(N)=O)ccc2n1CCCCNC(=O)OC(C)(C)C | 21 | 78.4 | 97.6 | 0.6 | – |
| CCn1nc(C)cc1C(=O)Nc1nc2cc(C(N)=O)ccc2n1CCCCn1c(NC(=O)c2cc(C)nn2CC)nc2cc(C(N)=O)ccc21 | – | – | – | – | IC50 [20]: 6.16 nM; solubility [21]: Insoluble |
| CCn1nc(C)cc1C(=O)NCCCCCn1c(NC(=O)c2cc(C)nn2CC)nc2cc(C(N)=O)ccc21 | 1 | 77.5 | 44.9 | 0.3 | – |
| CCn1nc(C)cc1C(=O)/N=c1\[nH]c2cc(C(N)=O)cc(OC)c2n1C/C=C/Cn1/c(=N/C(=O)c2cc(C)nn2CC)[nH]c2cc(C(N)=O)cc(OCCCN3CCOCC3)c21 | 68.6 | – | 83.1 | 0.7 | Emax [11]: 136%; Activity (RAW264.7 [16]): Active; Activity [19]: Active |
| CCn1nc(C)cc1C(=O)/N=c1\[nH]c2cc(C(N)=O)ccc2n1C[C@@H](O)c1ccccc1 | 2 | 76.9 | 96 | 0.7 | – |
| CCn1nc(C)cc1C(=O)NCCCn1c(NC(=O)c2cc(C)nn2CC)nc2cc(C(N)=O)ccc21 | 13.7 | 82.3 | 40.6 | 0.4 | – |
| CCn1nc(C)cc1C(=O)Nc1nc2cc(C(N)=O)cc(OC)c2n1C/C=C/CNC(=O)OC(C)(C)C | 13.7 | 87.7 | 89.5 | 0.7 | – |
| CCn1nc(C)cc1C(=O)Nc1nc2cc(C(N)=O)cc(OCCCNC(=O)OC(C)(C)C)c2n1C | 127 | 110 | 80.1 | 0.8 | – |
| CCn1nc(C)cc1C(=O)/N=c1\[nH]c2cc(C(N)=O)ccc2n1CCCCn1/c(=N/C(=O)c2cc(C)nn2CC)[nH]c2cc(C(N)=O)ccc21 | 97.8 | 93.8 | 97.4 | 0.8 | Activity [22]: Active; Activity [23]: Active; Activity [24]: Active; Activity [25]: Active |
| Cc1cc(C(=O)Nc2nc3cc(C(N)=O)ccc3n2CCCCNC(=O)OC(C)(C)C)n(C(C)C)n1 | 0.9 | 100.1 | 97.1 | 0.8 | – |

Second part, led by results:

| RLU [3] | SMILES | Activity [2] [%] | Activity (THP1-Dual) [%] | RLU [8] | other results |
| --- | --- | --- | --- | --- | --- |
| 100 | CCn1nc(C)cc1C(=O)NCCCOc1cc(C(N)=O)cc2nc(NC(=O)c3cc(C)nn3CC)n(C/C=C/Cn3c(NC(=O)c4cc(C)nn4CC)nc4cc(C(N)=O)cc(OC)c43)c12 | – | – | 0.8 | AUC(0-t) [1]: 4240 ng·h/mL; Activity (RAW264.7 [9]): Active; clearance [4]: 12 mL/min/kg; Activity [10]: Non-Toxic; Emax [11]: 325%; Activity (RAW264.7 [12]): Active; Activity (CT26 [13]): Active; AUC(0-inf) [5]: 4300 ng·h/mL; Activity [14]: Non-Toxic; Activity (CT26 [15]): Active; Vd [6]: 1.81 L/kg; Activity (RAW264.7 [16]): Active; half-life [7]: 1.75 h; Activity (CT26 [17]): Active; Activity (RAW264.7 [18]): Active; Activity [19]: Active; Activity (PBMC): Active |
| 0.5 | NC(=O)c1ccc2c(c1)nc(NC(=O)c1ccoc1)n2C[C@@H](O)c1ccccc1 | 94 | 88 | 0.9 | – |
| 0.8 | CC(C)(C)OC(=O)NCCCCn1c(NC(=O)c2cc3ccccc3o2)nc2cc(C(N)=O)ccc21 | 98 | 92.7 | 0.7 | – |
| 7.7 | Cn1cc(C(=O)Nc2nc3cc(C(N)=O)ccc3n2CCCCn2c(NC(=O)c3cn(C)nc3C(F)(F)F)nc3cc(C(N)=O)ccc32)c(C(F)(F)F)n1 | 115 | 96.7 | 0.8 | – |
| 101 | CCn1nc(C)cc1C(=O)Nc1nc2cc(C(N)=O)cc(OCCCN)c2n1C | 110 | 88 | 1 | – |
| 20 | CCn1nc(C)cc1C(=O)Nc1nc2cc(C(N)=O)ccc2n1CCCNC(=O)OC(C)(C)C | 88 | 90.2 | 0.9 | – |
| 16.3 | CCn1nc(C)cc1C(=O)Nc1nc2cc(C(N)=O)ccc2n1CCCCCNC(=O)OC(C)(C)C | 87 | 54.9 | 0.6 | – |
| 0.9 | CCn1nc(C)cc1C(=O)Nc1nc2cc(C(N)=O)ccc2n1CCCCNC(=O)c1ccn[nH]1 | 109.2 | 99.9 | 1.3 | – |
| 7 | CCn1nc(C)cc1C(=O)Nc1nc2cc(C(N)=O)ccc2n1CCCCNC(=O)c1ccccc1 | 64.2 | 27.4 | 0.2 | – |
| 0.4 | CCn1nc(C)cc1C(=O)Nc1nc2cc(C(N)=O)ccc2n1CCCCNC(C)=O | 74.9 | 40.8 | 0.3 | – |
| 0.9 | Cc1cc(C(=O)Nc2nc3cc(C(N)=O)ccc3n2CCCCNC(=O)OC(C)(C)C)n(C)n1 | 108.2 | 96.7 | 1.2 | – |

— ChEMBL document CHEMBL5154810, “Development of Potent Immune Modulators Targeting Stimulator of Interferon Genes Receptor” (J Med Chem, 2022)
